Results taken from patent US20260085315A1, “POLYNUCLEOTIDE COMPOSITIONS AND METHODS FOR TREATMENT OF CANCER” (APTAH BIO, INC., priority 2023, published 2026).
Several values for one entry are separate records, joined by “and”; a condition that tells them apart may be missing. Identical values can stand only once. Entries after “also recorded” stand apart in the source; their conditions may differ.

What was measured:
Format in all cases: in vivo, athymic nude mice
[1] = tested on: Human Glioblastoma Cancer (U-87MG) xenograft; experiment: Histopathology of tumor samples with scoring; set-up: key to Score: Grade: 1: I; 2: II; 3: III; 4: IV; key to Score: Connective tissue stroma: 1: Minimal Fibrosis; 2: Mild Fibrosis; 3: Moderate Fibrosis; 4: Prominent; key to Score: N:C ratio: 3: High; 2: Low to High; 1: Low; key to Score: Apoptosis / Score: Lipid content: 4: Minimal; 3: Mild; 2: Moderate; 1: Prominent; conditions: individual animals; G3 APT20TTMG, G2 TMZ
Text: (§1) The fixed tissues were processed for routine paraffin embedding followed by sectioning (3-6 micron). The sections were stained with hematoxylin and eosin. The prepared slides were examined under microscope by the study pathologist to record histopathological findings in tumor samples, related to capsule formation, cell type, connective tissue stroma, apoptosis, necrosis, lipid content, nucleus-to-cytoplasmic (N:C) ratio, nuclei mitotic figures, tumor grade, and level of differentiation. Each histopathological finding and tumor volume were assigned a score ranging from 1 to 4 (Table 7). The sum of these scores for each sample was used to infer the tumor aggressiveness.

[2] = tested on: Human Glioblastoma Cancer (U-87MG) xenograft; experiment: Histopathology of tumor samples with scoring; set-up: key: 1: Few; 2: Moderate; 3: Large; conditions: individual animals; G3 APT20TTMG, G2 TMZ
Text: as §1

[3] = tested on: Human Glioblastoma Cancer (U-87MG) xenograft; experiment: Histopathology of tumor samples with scoring; set-up: key: 4: Minimal; 3: Mild; 2: Moderate; 1: Prominent; conditions: individual animals; G3 APT20TTMG, G2 TMZ
Text: as §1

[4] = tested on: Human Glioblastoma Cancer (U-87MG) xenograft; experiment: Histopathology of tumor samples with scoring; set-up: key: 1: Minimal Fibrosis; 2: Mild Fibrosis; 3: Moderate Fibrosis; 4: Prominent; conditions: individual animals; G3 APT20TTMG, G2 TMZ
Text: as §1

[5] = tested on: Human Glioblastoma Cancer (U-87MG) xenograft; experiment: Human glioblastoma xenograft tumor growth; conditions: for tumor reduction in relation to the negative control: APT20TTMG 20 mg/kg i.v. q3d, TMZ 5 mg/kg p.o. daily
Protocol: Subcutaneous inoculation of the tumorigenic Human Glioblastoma Cancer Cell line (U-87MG) results in the formation of solid tumor in athymic nude mice. Under pathogen free conditions, the tumor retains its own characteristics and grows using the growth factors supplied by the host animal. The ability of administered ASMO1 to inhibit the growth of tumor can be a valuable tool to evaluate its efficacy as an anti-tumor agent. Measurement of tumor size at defined intervals of time generates data that can be used to calculate various end point parameters derived from tumor and understand the potency of the test compounds.
Human glioblastoma cancer cells (U-87MG) were cultured and expanded in EMEM (Eagle's Minimum Essential Medium) supplemented with 10% Fetal Bovine Serum (FBS) at 37° C. and 5% CO2. The cells growing at log phase were harvested by trypsinization and centrifuged for 3 minutes at 800 rpm to form a pellet. The pellet was further washed with PBS. Cell suspension stock was prepared to obtain the required cell count. Before cell inoculation, cell viability was determined using trypan blue. 25 μL of cell suspension was stained with 25 μL of trypan blue and viable cells were counted using Neubauer's chamber. Cell number was adjusted by adding serum free media to achieve desired concentration, i.e., 10×10^7/mL.
Cells were diluted such that the concentration of the cells was 10 million cells/100 μL of serum free medium. Overnight thawed Matrigel and cells with medium were mixed 1:1 and a total volume of 200 μL was injected subcutaneously to the donor animals (n=5) at flank region.
Donor animals were monitored for solid tumor growth for at least 3-4 weeks. Tumor size was measured using digital caliper (MITUTOYO, Japan, CP-15Mx) and volume was calculated by using the formula: (L*W2)/2. Once the tumor reached required size ˜500 mm^3, the donor animals were humanely sacrificed, the tumor was harvested and fragmented into ˜30 mg size and implanted subcutaneously to experimental animals (n=50) using the device. All the animals was monitored alternate day for tumor growth/size.
Once the tumor size reached ˜100 mm^3, animals were selected and randomized by stratification method using tumor size into three groups (G1-G3). Treatment for G1-G3 was initiated at this stage. Each group was comprised of 8 animals.
• G1 was served as vehicle control group and treated with normal saline at the dose of 5 mL/kg, daily, intravenously for 3 weeks. • G2 was served as Reference Item treated group and treated with TMZ at the dose of 5 mg/kg, p.o., daily for 3 weeks. • G3 was treated with APT20TTMG at the dose of 20 mg/kg, intravenously, every third day (q3d) for 3 weeks.
Body weight and tumor size were measured weekly twice using digital caliper. At termination, blood was collected through retro-orbital route. Serum/plasma was separated and stored at deep freezer (−20° C.). Post blood collection, animals were humanely sacrificed by CO2 asphyxiation as per latest guidelines issued by CPCSEA. All the vital organ (brain, kidney, liver, lungs, heart) and tumor were dissected out. Vital organs were fixed in 10% NBF and stored. Tumor tissue was dissected out, weighed and portion of tumor tissue was fixed in 10% NBF and another portion is snap frozen and stored at deep freezer (−80° C.).
As shown in FIG. 34A-C, tumor fragments from the U-87MG cell line were implanted in the animals and once the tumor size reached ˜100 mm^3 animals were randomized into 3 experimental groups (G1, G2, and G3). G1: Vehicle, (G2) Reference Item Temozolomide, and (G3) APT20TTMG for a total of 22 days. (A) The tumor volume of the animals was measured twice/a week. (B) Animals were weighed throughout the experiment and the change in weight gain compared to pre-treatment weight was plotted. (C) After the euthanasia of the animals, the tumors were removed and weighed.

Cn1nnc2c(C(N)=O)ncn2c1=O [TMZ, Temozolomide, reference compound]
Histopathological findings: Grade [1]: Grade- 2; also recorded: Grade- 3
Score: Apoptosis [1]: 3 (7×) and 2
Score: Connective tissue stroma [1]: 3 (2×) and 2 (5×) and 1
Score: Grade [1]: 2 (5×) and 3 (3×)
Score: Lipid content [1]: 3 (4×) and 2 and 1 (3×)
Score: N:C ratio [1]: 2
Score: Volume Tumor [1]: 4 (>1500) and 1 (<500) (2×) and 2 (500-1000) (2×) and 3 (1000-1500) (3×)
Score: Mitotic figures [2]: 3 (4×) and 1 (4×)
Score: Necrosis [3]: 3
Score: Necrosis [4]: 4
tumor reduction in relation to the negative control ([5]; day 20): 41.3±11.1%
tumor reduction in relation to the negative control ([5]; day 22): 31.1±13.4%
Volume (tumor) ([5]; individual animals, G3 APT20TTMG, G2 TMZ): Volume 1593.8; also recorded: Volume 113.1; also recorded: Volume 937.9; also recorded: Volume 339.1; also recorded: Volume 1447.2; also recorded: Volume 830.6; also recorded: Volume 1277.9; also recorded: Volume 1479.7
